# Results: US4345938A, “Herbicidal 2-haloacetanilides” (Monsanto Company, priority 1980, dated 1982)
# Like-named read-outs stand apart in the source and are kept apart here.
# Assays:
# Assay type in all cases: in vivo
# [1] = test system: Monochoria vaginalis; test: Field transplant rice test, applied 0 DAT, MV; conditions: Pontederia vaginalis, 0 h, read-out: Percent Inhibition, MV; for inhibition at 375 g/ha: 0.375 Kg/Ha; for inhibition at 750 g/ha: 0.75 Kg/Ha; for inhibition at 1500 g/ha: 1.5 Kg/Ha; for inhibition at 3000 g/ha: 3.0 Kg/Ha
# Method: (§1) The test data in Table III for all compounds was obtained under identical test conditions. The weeds used in the tests herein have the following abbreviations in the tables: Echinochloa crus-galli (EC), Monochloria vaginalis (MV), Cyperus Serotinus (CS), Eleocharis Kuroguwai (EK) and Sagittaria trifolia (ST).
# (§2) In further comparative tests, a preferred compound of this invention (Example 1) was tested in the field with prior art Compounds A-D. These tests were conducted under conditions reflecting herbicide application times generally favorable to all herbicides in the test. The timing of application of herbicides to transplant rice is very important, whether, as in some instances, prior to transplanting the rice; in other instances, at the time of transplanting or else after transplanting. Application times are conventionally referred to as "days before transplant" (DBT) or "days after transplant" ("DAT"). The field test data in Table IV was obtained from a test in which the herbicides were applied at the time of transplant, i.e., "0 DAT", with observations being made weekly up to six weeks after transplant ("WAT") beginning at two weeks after transplant; for illustrative and representative purposes, only the early, middle and late period observations, i.e., 2 WAT, 4 WAT and 6 WAT, are shown in Table IV. The data in Table IV is for rates of application common to all herbicides in the test, i.e., from 3.0 kg/ha (2.67 lb/A) down to 0.375 kg/ha (0.34 lb/A). All herbicides were applied at their actual or expected use rates, i.e., as granules containing 2.5% by weight herbicide for the compound of Example 1, Compounds B, C and D and 5.0% by weight for Compound A.
# [2] = test system: Echinochloa crus-galli; test: Field transplant rice test, applied 9 DAT, EC; conditions: for inhibition at 375 g/ha / inhibition at 750 g/ha / inhibition at 1500 g/ha / inhibition at 3000 g/ha: Echinochloa crus-galli, 216 h, read-out: Percent Inhibition, EC; for inhibition at 375 g/ha: 0.375 Kg/Ha; for inhibition at 750 g/ha: 0.75 Kg/Ha; for inhibition at 1500 g/ha: 1.5 Kg/Ha; for inhibition at 3000 g/ha: 3.0 Kg/Ha
# Excerpt: (§3) In the discussion of data below, occasional reference is made to herbicide application rates symbolized as "GR15 " and "GR85 "; these rates are given in kilograms per hectare (kg/ha) which are convertible into pounds per acre (lbs/A) by dividing the kg/ha rate by 1.12.
# (§4) A further guide to the effectiveness of a chemical as a selective herbicide is the "selectivity factor" ("SF") for a herbicide in given crops and weeds. The selectivity factor is a measure of the relative degree of crop safety and weed injury and is expressed in terms of the GR15 /GR85 ratio, i.e., the GR15 rate for the crop divided by the GR85 rate for the weed, both rates in kg/ha (lb/A.)
# as §1, §2
# (§5) In Table V are presented field data showing the relative performance of the compound of Example 1 and Compounds A-D applied 9 DAT, with observations being made weekly from 3 WAT to 7 WAT; again, for illustrative and representative purposes, only the early, middle and late period observations are reported in Table V, the herbicide rates and concentrations of active ingredients the same as is shown in Table IV.
# [3] = test system: Monochoria vaginalis; test: Field transplant rice test, applied 9 DAT, MV; conditions: for inhibition at 375 g/ha / inhibition at 750 g/ha / inhibition at 1500 g/ha / inhibition at 3000 g/ha: Pontederia vaginalis, 216 h, read-out: Percent Inhibition, MV; for inhibition at 375 g/ha: 0.375 Kg/Ha; for inhibition at 750 g/ha: 0.75 Kg/Ha; for inhibition at 1500 g/ha: 1.5 Kg/Ha; for inhibition at 3000 g/ha: 3.0 Kg/Ha
# Excerpt: as §3, §4, §1, §2, §5
# [4] = test system: Eleocharis kuroguwai; test: Field transplant rice test, applied 9 DAT, EK; conditions: for inhibition at 375 g/ha / inhibition at 750 g/ha / inhibition at 1500 g/ha / inhibition at 3000 g/ha: Eleocharis kuroguwai, 216 h, read-out: Percent Inhibition, EK; for inhibition at 375 g/ha: 0.375 Kg/Ha; for inhibition at 750 g/ha: 0.75 Kg/Ha; for inhibition at 1500 g/ha: 1.5 Kg/Ha; for inhibition at 3000 g/ha: 3.0 Kg/Ha
# Excerpt: as §3, §4, §1, §2, §5
# [5] = test system: Sagittaria trifolia; test: Field transplant rice test, applied 9 DAT, ST; conditions: 216 h, read-out: Percent Inhibition, ST; for inhibition at 375 g/ha: 0.375 Kg/Ha; for inhibition at 750 g/ha: 0.75 Kg/Ha; for inhibition at 1500 g/ha: 1.5 Kg/Ha; for inhibition at 3000 g/ha: 3.0 Kg/Ha
# Method: as §1, §2, §5
compound,measurement,setting,value
"CCCCOCN(C(=O)CCl)c1c(C)cccc1C(C)(C)C [Compound C, 2'-methyl-6'-tert-butyl-N-(n-butoxymethyl)-2-chloroacetanilide]",inhibition at 375 g/ha,[1]; 2 WAT,100%
same,inhibition at 375 g/ha,[1]; 4 WAT,100%
same,inhibition at 375 g/ha,[1]; 6 WAT,97%
same,inhibition at 750 g/ha,[1]; 2 WAT,100%
same,inhibition at 750 g/ha,[1]; 4 WAT,100%
same,inhibition at 750 g/ha,[1]; 6 WAT,100%
same,inhibition at 1500 g/ha,[1]; 2 WAT,100%
same,inhibition at 1500 g/ha,[1]; 4 WAT,100%
same,inhibition at 1500 g/ha,[1]; 6 WAT,100%
same,inhibition at 3000 g/ha,[1]; 2 WAT,100%
same,inhibition at 3000 g/ha,[1]; 4 WAT,100%
same,inhibition at 3000 g/ha,[1]; 6 WAT,100%
same,inhibition at 375 g/ha,[2]; 3 WAT,82%
same,inhibition at 375 g/ha,[2]; 5 WAT,78%
same,inhibition at 375 g/ha,[2]; 7 WAT,82%
same,inhibition at 750 g/ha,[2]; 3 WAT,92%
same,inhibition at 750 g/ha,[2]; 5 WAT,95%
same,inhibition at 750 g/ha,[2]; 7 WAT,97%
same,inhibition at 1500 g/ha,[2]; 3 WAT,98%
same,inhibition at 1500 g/ha,[2]; 5 WAT,100%
same,inhibition at 1500 g/ha,[2]; 7 WAT,100%
same,inhibition at 3000 g/ha,[2]; 3 WAT,98%
same,inhibition at 3000 g/ha,[2]; 5 WAT,100%
same,inhibition at 3000 g/ha,[2]; 7 WAT,100%
same,"selectivity factor (GR15/GR85), EC in transplant rice",[2]; between 3 WAT and 7 WAT,4
same,inhibition at 375 g/ha,[3]; 3 WAT,97%
same,inhibition at 375 g/ha,[3]; 5 WAT,98%
same,inhibition at 375 g/ha,[3]; 7 WAT,60%
same,inhibition at 750 g/ha,[3]; 3 WAT,100%
same,inhibition at 750 g/ha,[3]; 5 WAT,100%
same,inhibition at 750 g/ha,[3]; 7 WAT,100%
same,inhibition at 1500 g/ha,[3]; 3 WAT,100%
same,inhibition at 1500 g/ha,[3]; 5 WAT,100%
same,inhibition at 1500 g/ha,[3]; 7 WAT,100%
same,inhibition at 3000 g/ha,[3]; 3 WAT,100%
same,inhibition at 3000 g/ha,[3]; 5 WAT,100%
same,inhibition at 3000 g/ha,[3]; 7 WAT,100%
same,"selectivity factor (GR15/GR85), MV in transplant rice",[3]; between 3 WAT and 7 WAT,8
same,inhibition at 375 g/ha,[4]; 3 WAT,52%
same,inhibition at 375 g/ha,[4]; 5 WAT,23%
same,inhibition at 375 g/ha,[4]; 7 WAT,15%
same,inhibition at 750 g/ha,[4]; 3 WAT,75%
same,inhibition at 750 g/ha,[4]; 5 WAT,68%
same,inhibition at 750 g/ha,[4]; 7 WAT,32%
same,inhibition at 1500 g/ha,[4]; 3 WAT,70%
same,inhibition at 1500 g/ha,[4]; 5 WAT,77%
same,inhibition at 1500 g/ha,[4]; 7 WAT,38%
same,inhibition at 3000 g/ha,[4]; 3 WAT,83%
same,inhibition at 3000 g/ha,[4]; 5 WAT,93%
same,inhibition at 3000 g/ha,[4]; 7 WAT,74%
same,"selectivity factor (GR15/GR85), EK in transplant rice",[4]; at 5 WAT,greater than 1
same,inhibition at 375 g/ha,[5]; 3 WAT,47%
same,inhibition at 375 g/ha,[5]; 5 WAT,10%
same,inhibition at 375 g/ha,[5]; 7 WAT,2%
same,inhibition at 750 g/ha,[5]; 3 WAT,32%
same,inhibition at 750 g/ha,[5]; 5 WAT,8%
same,inhibition at 750 g/ha,[5]; 7 WAT,0%
same,inhibition at 1500 g/ha,[5]; 3 WAT,48%
same,inhibition at 1500 g/ha,[5]; 5 WAT,17%
same,inhibition at 1500 g/ha,[5]; 7 WAT,7%
same,inhibition at 3000 g/ha,[5]; 3 WAT,30%
same,inhibition at 3000 g/ha,[5]; 5 WAT,13%
same,inhibition at 3000 g/ha,[5]; 7 WAT,3%
